Key:
[1] = test system: Sprague-Dawley rats (SD rats); test: oral sucrose loading test, voglibose and nateglinide (Example 2); type: in vivo, rat; details: 2.5 g/kg sucrose load, 0-120 min, average ± standard deviation
Method: An effect of the combined use of the α-glucosidase inhibitor (voglibose) and non-sulfonylurea insulin secretagogue (nateglinide) was examined in an oral sucrose loading test using Sprague-Dawley rats (SD rats). SD rats (7-week-old, male) were divided into 6 groups (6 rats per group) to give 1) a control group (distilled water administration), 2) a voglibose 0.1 mg/kg administration group, 3) a nateglinide 10 or 30 mg/kg administration group, and 4) a voglibose 0.1 mg/kg and nateglinide 10 or 30 mg/kg combined administration group. After fasting overnight, every rat was given the above-mentioned drugs by single or combined oral administration, and successively given 2.5 g/kg sucrose solution by oral administration. […] The plasma glucose level was measured by an enzymatic method using an L type Wako Glu2 (Wako Pure Chemical Industries, Ltd.). Increase in the plasma glucose area was calculated by a trapezoid method (Odaka et al., J. Nutr. Sci. Vitaminol., vol. 38, p. 37 (1992) using the plasma glucose level at each time point. The results are shown in Table 1.

[2] = test system: Sprague-Dawley rats (SD rats); test: oral sucrose loading test, voglibose and repaglinide (Example 3); type: in vivo, rat; details: repaglinide 0.05 mg/kg oral, 2.5 g/kg sucrose load, 0-60 min, average ± standard deviation
Method: An effect of the combined use of the α-glucosidase inhibitor (voglibose) and the non-sulfonylurea insulin secretagogue (repaglinide) was examined in an oral sucrose loading test using Sprague-Dawley rats (SD rats).
SD rats (10-week-old, male) were divided into 4 groups (6 rats per group) to give 1) a control group (distilled water administration), 2) a repaglinide 0.05 mg/kg administration group, and 3) a voglibose 0.1 mg/kg and repaglinide 0.05 mg/kg combined administration group. After fasting overnight, every rat was given the above-mentioned drugs by single or combined oral administration, and successively given 2.5 g/kg of a sucrose solution by oral administration. The blood was drawn from the rat tail vein before administration of the sucrose solution and 15, 30 and 60 min after the administration, and the plasma glucose level was measured. The plasma glucose level was measured by an enzymatic method using an L type Wako Glu2 (Wako Pure Chemical Industries, Ltd.), and the plasma insulin level was measured by radio immunoassay using Insulotech-Mochida (Mochida Pharmaceutical Co., Ltd.).
Increase in the plasma glucose and plasma insulin areas was calculated by a trapezoid method (Odaka et al., J. Nutr. Sci. Vitaminol., vol. 38, p. 37 (1992)) using the plasma glucose and plasma insulin levels at each time point.

## CC(C)[C@H]1CC[C@H](C(=O)N[C@H](Cc2ccccc2)C(=O)O)CC1 [nateglinide]
[1]; nateglinide 10 mg/kg oral
  Increase in plasma glucose area: 65 ± 28 mg·h/dL
[1]; nateglinide 30 mg/kg oral
  Increase in plasma glucose area: 54 ± 15 mg·h/dL

## CCOc1cc(CC(=O)N[C@@H](CC(C)C)c2ccccc2N2CCCCC2)ccc1C(=O)O [repaglinide]
[2]
  Increase in plasma glucose area: 6 ± 13 mg·h/dL
  Increase in plasma insulin area: 432 ± 117 μU · h/ml

## OCC(CO)N[C@H]1C[C@](O)(CO)[C@@H](O)[C@H](O)[C@H]1O [voglibose]
[1]; voglibose 0.1 mg/kg oral
  Increase in plasma glucose area: 30 ± 10 mg·h/dL
